ChEMBL document CHEMBL3627684, “Discovery of spirocyclic-diamine inhibitors of mammalian acetyl CoA-carboxylase” (Bioorg Med Chem Lett, 2015)

How the values were obtained:
[1] = Inhibition of acetyl-CoA carboxylase in rat cryopreserved hepatocytes assessed as suppression of de novo lipogenesis; type: cell-based; conditions: hepatocyte
Acetyl-CoA carboxylase 2 = Acetyl-CoA carboxylase 2 (Homo sapiens, UniProt O00763); assay: Inhibition of recombinant human ACC2 expressed in CHO cells by fluorescence polarization assay
Acetyl-CoA carboxylase 1 = Acetyl-CoA carboxylase 1 (Rattus norvegicus, UniProt P11497); assay: Inhibition of rat liver ACC1 preincubated for 10 mins followed by acetyl-CoA/KHCO3/[14C]-NaHCO3/ATP addition measured after 20 mins by liquid scintillation counting analysis
[2] = Intrinsic clearance in human liver microsomes
[3] = Plasma clearance in rat; type: ADME, organism-based

Acetyl-CoA carboxylase 2, sequence (O00763 whole entry): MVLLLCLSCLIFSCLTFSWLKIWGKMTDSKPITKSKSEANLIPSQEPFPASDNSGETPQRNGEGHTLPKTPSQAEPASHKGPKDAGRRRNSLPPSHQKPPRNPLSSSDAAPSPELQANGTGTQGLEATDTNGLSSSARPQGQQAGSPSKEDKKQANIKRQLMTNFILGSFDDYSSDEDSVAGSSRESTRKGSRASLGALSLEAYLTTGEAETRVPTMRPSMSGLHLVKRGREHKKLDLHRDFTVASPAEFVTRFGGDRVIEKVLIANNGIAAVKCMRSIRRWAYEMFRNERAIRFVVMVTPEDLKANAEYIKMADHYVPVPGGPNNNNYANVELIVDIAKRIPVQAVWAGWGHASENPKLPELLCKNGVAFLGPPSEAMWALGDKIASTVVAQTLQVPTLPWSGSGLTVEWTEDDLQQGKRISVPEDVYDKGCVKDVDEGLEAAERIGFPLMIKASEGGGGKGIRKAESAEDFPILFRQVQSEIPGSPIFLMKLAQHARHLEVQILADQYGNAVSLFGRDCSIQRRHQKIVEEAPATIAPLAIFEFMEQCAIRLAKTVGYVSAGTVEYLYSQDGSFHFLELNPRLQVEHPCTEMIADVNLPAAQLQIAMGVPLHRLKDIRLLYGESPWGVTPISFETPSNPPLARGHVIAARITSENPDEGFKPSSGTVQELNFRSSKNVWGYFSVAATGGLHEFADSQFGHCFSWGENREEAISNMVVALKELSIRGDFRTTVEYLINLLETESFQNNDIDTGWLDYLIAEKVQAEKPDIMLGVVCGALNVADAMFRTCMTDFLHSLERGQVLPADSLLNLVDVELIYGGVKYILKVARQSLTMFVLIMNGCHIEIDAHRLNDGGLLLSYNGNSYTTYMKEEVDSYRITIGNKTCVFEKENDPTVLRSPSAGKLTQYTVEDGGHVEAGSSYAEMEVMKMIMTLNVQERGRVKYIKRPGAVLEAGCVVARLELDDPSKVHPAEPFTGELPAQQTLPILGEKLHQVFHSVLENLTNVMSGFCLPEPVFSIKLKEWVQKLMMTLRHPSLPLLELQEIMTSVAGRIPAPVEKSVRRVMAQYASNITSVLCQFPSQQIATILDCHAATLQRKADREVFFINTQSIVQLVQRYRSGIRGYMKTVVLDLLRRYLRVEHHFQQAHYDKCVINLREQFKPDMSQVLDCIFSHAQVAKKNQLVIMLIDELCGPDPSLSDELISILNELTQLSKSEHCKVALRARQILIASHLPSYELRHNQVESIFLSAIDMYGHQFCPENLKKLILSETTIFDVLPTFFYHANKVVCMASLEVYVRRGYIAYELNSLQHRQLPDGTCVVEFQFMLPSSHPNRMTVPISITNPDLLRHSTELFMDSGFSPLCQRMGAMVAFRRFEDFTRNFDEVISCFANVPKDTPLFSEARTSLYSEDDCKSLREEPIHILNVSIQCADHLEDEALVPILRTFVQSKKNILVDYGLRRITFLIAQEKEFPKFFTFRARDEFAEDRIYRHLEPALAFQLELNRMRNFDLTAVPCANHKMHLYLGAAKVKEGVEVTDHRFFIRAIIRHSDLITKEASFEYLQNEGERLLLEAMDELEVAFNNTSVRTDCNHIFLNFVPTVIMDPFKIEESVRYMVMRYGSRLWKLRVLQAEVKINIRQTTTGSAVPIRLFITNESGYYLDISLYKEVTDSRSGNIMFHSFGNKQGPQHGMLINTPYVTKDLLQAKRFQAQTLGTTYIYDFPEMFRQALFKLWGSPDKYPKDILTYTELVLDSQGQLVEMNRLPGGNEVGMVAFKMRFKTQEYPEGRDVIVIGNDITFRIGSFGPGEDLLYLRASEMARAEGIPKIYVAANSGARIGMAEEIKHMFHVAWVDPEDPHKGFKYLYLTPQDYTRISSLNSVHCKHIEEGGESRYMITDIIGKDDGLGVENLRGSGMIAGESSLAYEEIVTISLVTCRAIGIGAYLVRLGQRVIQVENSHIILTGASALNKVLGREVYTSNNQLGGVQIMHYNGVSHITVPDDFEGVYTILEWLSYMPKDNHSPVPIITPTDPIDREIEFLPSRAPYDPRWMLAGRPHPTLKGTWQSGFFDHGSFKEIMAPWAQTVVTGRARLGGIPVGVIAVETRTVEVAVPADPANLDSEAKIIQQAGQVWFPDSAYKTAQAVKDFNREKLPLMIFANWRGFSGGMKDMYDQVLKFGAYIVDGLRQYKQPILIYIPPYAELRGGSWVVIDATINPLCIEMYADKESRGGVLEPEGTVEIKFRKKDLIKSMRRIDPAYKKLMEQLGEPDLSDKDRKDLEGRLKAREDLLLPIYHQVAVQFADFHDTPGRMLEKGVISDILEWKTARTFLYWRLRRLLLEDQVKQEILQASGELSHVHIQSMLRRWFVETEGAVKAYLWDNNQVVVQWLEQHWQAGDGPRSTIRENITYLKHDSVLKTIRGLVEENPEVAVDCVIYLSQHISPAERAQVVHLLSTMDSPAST

## CC(C)(C)n1cc2c(n1)C(=O)CC1(CCN(C(=O)c3ccc4[nH]ncc4c3)CC1)O2
[1]
  IC50: 93 nM

## Cc1cc(C(=O)N2CCC3(CCN(C(=O)OC(C)(C)C)CC3)C2)cc2cn[nH]c12
Acetyl-CoA carboxylase 2
  IC50: 2200 nM
Acetyl-CoA carboxylase 1
  IC50: 1000 nM
[2]
  CLint scaled: 94 mL/min/kg

## Cc1cc(C(=O)N2CCC3(CCN(C(=O)OC(C)(C)C)C3)CC2)cc2cn[nH]c12
Acetyl-CoA carboxylase 2
  IC50: 1000 nM
Acetyl-CoA carboxylase 1
  IC50: 510 nM
[2]
  CLint scaled: 32 mL/min/kg

## Cc1cc(C(=O)N2CC3(CCN(C(=O)OC(C)(C)C)CC3)C2)cc2cn[nH]c12
Acetyl-CoA carboxylase 2
  IC50: 2400 nM
Acetyl-CoA carboxylase 1
  IC50: 810 nM
[2]
  CLint scaled: 19 mL/min/kg

## Cc1cc(C(=O)N2CCC3(CC2)CN(C(=O)OC(C)(C)C)C3)cc2cn[nH]c12
Acetyl-CoA carboxylase 2
  IC50: 800 nM
Acetyl-CoA carboxylase 1
  IC50: 450 nM
[2]
  CLint scaled: < 9 mL/min/kg

## Cc1cc(C(=O)N2CCC3(CCN(C(=O)OC(C)(C)C)C3)C2)cc2cn[nH]c12 (stereo not drawn)
Acetyl-CoA carboxylase 2
  IC50: 20000 nM
Acetyl-CoA carboxylase 1
  IC50: 11000 nM

## Cc1cc(C(=O)N2CC3(CN(C(=O)OC(C)(C)C)C3)C2)cc2cn[nH]c12
Acetyl-CoA carboxylase 2
  IC50: > 10000 nM
Acetyl-CoA carboxylase 1
  IC50: > 30000 nM

## Cc1cc(C(=O)N2CCC3(CC2)CN(C(=O)OCC(C)(C)C)C3)cc2cn[nH]c12
Acetyl-CoA carboxylase 2
  IC50: 1400 nM
Acetyl-CoA carboxylase 1
  IC50: 310 nM

## Cc1cc(C(=O)N2CCC3(CC2)CN(C(=O)O[C@H](C)c2ccccc2)C3)cc2cn[nH]c12
Acetyl-CoA carboxylase 2
  IC50: 880 nM
Acetyl-CoA carboxylase 1
  IC50: 310 nM
[2]
  CLint scaled: 64 mL/min/kg

## Cc1cc(C(=O)N2CCC3(CCN(C(=O)OC(C)C)C3)CC2)cc2cn[nH]c12
Acetyl-CoA carboxylase 2
  IC50: 4500 nM
Acetyl-CoA carboxylase 1
  IC50: 1600 nM

## Cc1cc(C(=O)N2CCC3(CCN(C(=O)OCC(C)(C)C)C3)CC2)cc2cn[nH]c12
Acetyl-CoA carboxylase 2
  IC50: 800 nM
Acetyl-CoA carboxylase 1
  IC50: 220 nM
[2]
  CLint scaled: 117 mL/min/kg

## Cc1cc(C(=O)N2CCC3(CCN(C(=O)OCc4ccccc4)C3)CC2)cc2cn[nH]c12
Acetyl-CoA carboxylase 2
  IC50: 4000 nM
Acetyl-CoA carboxylase 1
  IC50: 2100 nM

## Cc1cc(C(=O)N2CCC3(CCN(C(=O)O[C@H](C)c4ccccc4)C3)CC2)cc2cn[nH]c12
Acetyl-CoA carboxylase 2
  IC50: 260 nM
Acetyl-CoA carboxylase 1
  IC50: 65 nM
[2]
  CLint scaled: 117 mL/min/kg

## Cc1cc(C(=O)N2CCC3(CC2C)CN(C(=O)OC(C)(C)C)C3)cc2cn[nH]c12 (stereo not drawn)
Acetyl-CoA carboxylase 2
  IC50: 9200 nM
Acetyl-CoA carboxylase 1
  IC50: 4800 nM
[2]
  CLint scaled: 46 mL/min/kg

## Cc1cc(C(=O)N2CCC3(CC2)CN(C(=O)OC(C)(C)C)C3C)cc2cn[nH]c12 (stereo not drawn)
Acetyl-CoA carboxylase 2
  IC50: 900 nM
Acetyl-CoA carboxylase 1
  IC50: 240 nM
[2]
  CLint scaled: 60 mL/min/kg

## Cc1cc(C(=O)N2CCC3(CC2C)C[C@H](C)N(C(=O)OCC(C)(C)C)C3)cc2cn[nH]c12 (stereo partly drawn)
Acetyl-CoA carboxylase 2
  IC50: 5500 nM
Acetyl-CoA carboxylase 1
  IC50: 2200 nM

## Cc1cc(C(=O)N2CCC3(CC2C)C[C@@H](C)N(C(=O)OCC(C)(C)C)C3)cc2cn[nH]c12 (stereo partly drawn)
Acetyl-CoA carboxylase 2
  IC50: 1100 nM
Acetyl-CoA carboxylase 1
  IC50: 140 nM

## Cc1cc(C(=O)N2CCC3(CC2)CCN(C(=O)OCC(C)(C)C)[C@H]3C)cc2cn[nH]c12
Acetyl-CoA carboxylase 2
  IC50: 110 nM
[3]
  clearance: 52 mL/min/kg
Acetyl-CoA carboxylase 1
  IC50: 16 nM
[2]
  CLint scaled: 106 mL/min/kg
[1]
  IC50: 300 nM

## Cc1cc(C(=O)N2CCC3(CC2)CCN(C(=O)OCC(C)(C)C)[C@@H]3C)cc2cn[nH]c12
Acetyl-CoA carboxylase 2
  IC50: 200 nM
Acetyl-CoA carboxylase 1
  IC50: 26 nM

## Cc1cc(C(=O)N2CCC3(CCN(C(=O)OC(C)(C)C)C3)CC2C)cc2cn[nH]c12 (stereo in doubt; 3.3.1)
Acetyl-CoA carboxylase 2
  IC50: > 14000 nM
Acetyl-CoA carboxylase 1
  IC50: 7900 nM

## Cc1cc(C(=O)N2CCC3(CCN(C(=O)OC(C)(C)C)C3)CC2C)cc2cn[nH]c12 (stereo in doubt; 3.3.2)
Acetyl-CoA carboxylase 2
  IC50: > 17000 nM
Acetyl-CoA carboxylase 1
  IC50: 9300 nM
